Where “and” joins values, the source holds several entries; their conditions need not be identical. Identical values can stand only once. Toxic doses and inconclusive results are not listed. Cut-off read from the data, not from the text of the source: active = T/C of 150% or more; inactive = T/C below 125%.
System: L1210 leukemia ip in BDF1 mice, survival T/C
Test: NCI In Vivo Anticancer Drug Screen. Data for tumor model L1210 Leukemia (intraperitoneal) in B6D2F1 (BDF1) mice
Conditions: endpoint: mean survival time, higher = longer survival
Outline: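 Tumor was transplanted into mice, which were then dosed with test compound or vehicle alone. Survival was recorded for each group, and the treated figure was expressed relative to the control figure.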

[1] = dose: 100.0 mg/kg/injection, schedule: Q01DX009 (ip), vehicle: Klucel (hydroxypropylcellulose) (HPC)
[2] = dose: 100.0 mg/kg/injection, schedule: Q04DX003 (ip), vehicle: Klucel (hydroxypropylcellulose) (HPC)
[3] = dose: 200.0 mg/kg/injection, schedule: Q01DX009 (ip), vehicle: Klucel (hydroxypropylcellulose) (HPC)
[4] = dose: 200.0 mg/kg/injection, schedule: Q04DX003 (ip), vehicle: Klucel (hydroxypropylcellulose) (HPC)
[5] = dose: 400.0 mg/kg/injection, schedule: Q01DX009 (ip), vehicle: Klucel (hydroxypropylcellulose) (HPC)
[6] = dose: 400.0 mg/kg/injection, schedule: Q04DX003 (ip), vehicle: Klucel (hydroxypropylcellulose) (HPC)
[7] = dose: 100.0 mg/kg/injection, schedule: Q01DX001 (ip), vehicle: saline
[8] = dose: 100.0 mg/kg/injection, schedule: Q04DX002 (ip), vehicle: Klucel (hydroxypropylcellulose) (HPC)
[9] = dose: 200.0 mg/kg/injection, schedule: Q04DX002 (ip), vehicle: Klucel (hydroxypropylcellulose) (HPC)
[10] = dose: 400.0 mg/kg/injection, schedule: Q04DX002 (ip), vehicle: Klucel (hydroxypropylcellulose) (HPC)
[11] = dose: 25.0 mg/kg/injection, schedule: Q01DX009 (ip), vehicle: saline

Measured: T/C

C[C@]12CCC(=O)C=C1CC[C@@H]1[C@@H]2[C@@H](O)C[C@@]2(C)[C@H]1CC[C@]2(O)C(=O)COC(=O)CCC(=O)O
inactive: dose: 50.0 mg/kg/injection, schedule: Q01DX001 (sc), vehicle: steriod suspending solution 107 % of control | dose: 100.0 mg/kg/injection, schedule: Q01DX001 (sc), vehicle: steriod suspending solution 104 % of control | dose: 100.0 mg/kg/injection, schedule: Q01DX009 (ip), vehicle: steriod suspending solution 108 % of control | dose: 100.0 mg/kg/injection, schedule: Q04DX003 (sc), vehicle: steriod suspending solution 100 % of control | dose: 200.0 mg/kg/injection, schedule: Q01DX001 (sc), vehicle: steriod suspending solution 105 % of control | dose: 200.0 mg/kg/injection, schedule: Q01DX009 (ip), vehicle: steriod suspending solution 101 % of control | dose: 200.0 mg/kg/injection, schedule: Q04DX003 (sc), vehicle: steriod suspending solution 96 % of control | dose: 400.0 mg/kg/injection, schedule: Q01DX001 (sc), vehicle: steriod suspending solution 94 % of control | dose: 400.0 mg/kg/injection, schedule: Q01DX009 (ip), vehicle: steriod suspending solution 103 % of control | dose: 400.0 mg/kg/injection, schedule: Q04DX003 (sc), vehicle: steriod suspending solution 102 % of control

CN(N)C(=O)Nc1ccc(Br)cc1
inactive: dose: 75.0 mg/kg/injection, schedule: Q01DX001 (ip), vehicle: carboxymethylcellulose (CMC) 104 % of control | dose: 150.0 mg/kg/injection, schedule: Q01DX001 (ip), vehicle: carboxymethylcellulose (CMC) 100 % of control | dose: 300.0 mg/kg/injection, schedule: Q01DX001 (ip), vehicle: carboxymethylcellulose (CMC) 98 % of control

Cc1ccc(NC(=O)C(c2ccccc2)c2ccccc2)cc1Cl
inactive: [1] 108 % of control | [2] 88 % of control | [3] 95 % of control | [4] 91 % of control | [5] 108 % of control | [6] 101 % of control

CCCCCCCCc1nc2c(c(=O)n(C)c(=O)n2C)n1C
inactive: dose: 45.0 mg/kg/injection, schedule: Q01DX001 (ip), vehicle: saline 95 % of control and 101 % of control | dose: 67.0 mg/kg/injection, schedule: Q01DX001 (ip), vehicle: saline 101 % of control and 104 % of control | [7] 97 % of control and 104 % of control | dose: 150.0 mg/kg/injection, schedule: Q01DX001 (ip), vehicle: saline 95 % of control and 101 % of control

NNC(=O)c1cnccn1
inactive: dose: 16.0 mg/kg/injection, schedule: Q01DX015 (ip), vehicle: water 102 % of control | dose: 32.0 mg/kg/injection, schedule: Q01DX015 (ip), vehicle: water 115 % of control | dose: 64.0 mg/kg/injection, schedule: Q01DX015 (ip), vehicle: water 109 % of control | dose: 80.0 mg/kg/injection, schedule: Q01DX015 (ip), vehicle: water 105 % of control | dose: 100.0 mg/kg/injection, schedule: Q01DX001 (ip), vehicle: water 96 % of control | dose: 120.0 mg/kg/injection, schedule: Q01DX015 (ip), vehicle: water 113 % of control

O=C(CCCC(=O)N/N=C/c1cc([N+](=O)[O-])ccc1O)N/N=C\c1cc([N+](=O)[O-])ccc1O
inactive: dose: 50.0 mg/kg/injection, schedule: Q01DX001 (ip), vehicle: saline 96 % of control | [7] 104 % of control | dose: 200.0 mg/kg/injection, schedule: Q01DX001 (ip), vehicle: saline 102 % of control | dose: 400.0 mg/kg/injection, schedule: Q01DX001 (ip), vehicle: saline 98 % of control

O=C(Nc1cccc(C(F)(F)F)c1)N(Cc1ccccc1)Cc1ccccc1
inactive: dose: 100.0 mg/kg/injection, schedule: Q01DX009 (ip), vehicle: gum acacia 108 % of control | dose: 200.0 mg/kg/injection, schedule: Q01DX009 (ip), vehicle: gum acacia 106 % of control | dose: 400.0 mg/kg/injection, schedule: Q01DX009 (ip), vehicle: gum acacia 94 % of control

O=C1CCC(Cc2ccccc2)N1 (stereo unspecified)
inactive: dose: 100.0 mg/kg/injection, schedule: Q04DX002 (ip), vehicle: saline with Tween-80 97 % of control | dose: 200.0 mg/kg/injection, schedule: Q04DX002 (ip), vehicle: saline with Tween-80 102 % of control | dose: 400.0 mg/kg/injection, schedule: Q04DX002 (ip), vehicle: saline with Tween-80 97 % of control

CSc1ccc(NC(=O)c2ccc([N+](=O)[O-])cc2)cc1
inactive: [8] 95 % of control | [9] 95 % of control | [10] 92 % of control

COC(C/C=C\C=C\CC/C=C/CC(C)/C=C/C(=C\C(=O)O)CC(=O)O)/C(C)=C\C=C(/C)C(=O)O (stereo unspecified)
inactive: dose: 0.5 mg/kg/injection, schedule: Q01DX001 (ip), vehicle: saline 101 % of control | dose: 1.0 mg/kg/injection, schedule: Q01DX001 (ip), vehicle: saline 102 % of control | dose: 2.0 mg/kg/injection, schedule: Q01DX001 (ip), vehicle: saline 102 % of control | dose: 4.0 mg/kg/injection, schedule: Q01DX001 (ip), vehicle: saline 104 % of control | dose: 8.0 mg/kg/injection, schedule: Q01DX001 (ip), vehicle: saline 101 % of control

CSc1ccc(NC(=O)Nc2cccc(C)n2)cc1
inactive: [1] 98 % of control | [2] 95 % of control | [3] 108 % of control | [4] 93 % of control | [5] 97 % of control | [6] 97 % of control

Brc1ccc2c(c1)nc1n2CCC1
inactive: dose: 100.0 mg/kg/injection, schedule: Q01DX001 (ip), vehicle: acetone 105 % of control | dose: 100.0 mg/kg/injection, schedule: Q04DX003 (ip), vehicle: saline 104 % of control | dose: 200.0 mg/kg/injection, schedule: Q01DX001 (ip), vehicle: acetone 108 % of control | dose: 200.0 mg/kg/injection, schedule: Q04DX003 (ip), vehicle: saline 111 % of control | dose: 400.0 mg/kg/injection, schedule: Q01DX001 (ip), vehicle: acetone 94 % of control | dose: 400.0 mg/kg/injection, schedule: Q04DX003 (ip), vehicle: saline 101 % of control

Oc1ccc(C2=NNC(c3ccc(O)cc3)=NN2)cc1
inactive: [8] 105 % of control | [9] 97 % of control | [10] 94 % of control

COC1OC2COc3ccccc3OC2C2C1N2C(N)=O (stereo unspecified)
inactive: [8] 104 % of control | [9] 96 % of control | [10] 100 % of control

C=CCOP(=O)(N1CC1CC)N1CC1CC (stereo unspecified)
inactive: dose: 10.0 mg/kg/injection, schedule: Q01DX015 (ip), vehicle: saline 103 % of control | dose: 20.0 mg/kg/injection, schedule: Q01DX015 (ip), vehicle: saline 96 % of control | dose: 40.0 mg/kg/injection, schedule: Q01DX015 (ip), vehicle: saline 102 % of control | dose: 80.0 mg/kg/injection, schedule: Q01DX015 (ip), vehicle: saline 108 % of control

O=CC(O)C(O)C(O)C(O)COP(=O)(O)O (stereo unspecified)
inactive: [11] 102 % of control | dose: 50.0 mg/kg/injection, schedule: Q01DX009 (ip), vehicle: saline 93 % of control | dose: 100.0 mg/kg/injection, schedule: Q01DX009 (ip), vehicle: saline 88 % of control

CCCCNC(=O)c1cc(NC(=O)c2ccc(C(=O)Nc3cc(C(=O)NCCCC)cc(C4N=CCN4)c3)cc2)cc(C2=NCCN2)c1 (stereo unspecified)
inactive: dose: 5.0 mg/kg/injection, schedule: Q01DX015 (ip), vehicle: methylcellulose (MC) 86 % of control | dose: 20.0 mg/kg/injection, schedule: Q01DX015 (ip), vehicle: methylcellulose (MC) 86 % of control | dose: 40.0 mg/kg/injection, schedule: Q01DX015 (ip), vehicle: methylcellulose (MC) 91 % of control | dose: 62.0 mg/kg/injection, schedule: Q01DX015 (ip), vehicle: methylcellulose (MC) 100 % of control

Cc1cc(N(CCCl)CCCl)ccc1C=Nc1cc(Cl)ccc1-n1ccnc1C
inactive: dose: 50.0 mg/kg/injection, schedule: Q04DX003 (ip), vehicle: Klucel (hydroxypropylcellulose) (HPC) 98 % of control | [2] 98 % of control | [4] 101 % of control | [6] 90 % of control

CC(CN1CCN(CCOCCO)CC1)CN1c2ccccc2Sc2ccccc21 (stereo unspecified)
inactive: dose: 3.12 mg/kg/injection, schedule: Q01DX009 (ip), vehicle: saline 103 % of control | dose: 6.25 mg/kg/injection, schedule: Q01DX009 (ip), vehicle: saline 97 % of control | dose: 12.5 mg/kg/injection, schedule: Q01DX009 (ip), vehicle: saline 108 % of control | [11] 113 % of control | dose: 25.0 mg/kg/injection, schedule: Q04DX003 (ip), vehicle: saline 96 % of control | dose: 50.0 mg/kg/injection, schedule: Q04DX003 (ip), vehicle: saline 102 % of control
